Source: ChEMBL document CHEMBL2016467, “Thiosemicarbazone fragment embedded within 1,2,4-triazole ring as inhibitors of Entamoeba histolytica” (Bioorg Med Chem Lett, 2012)

Tests used:
Entamoeba histolytica = assay: Antiamoebic activity against Entamoeba histolytica HM-1:IMSS trophozoites after 72 hrs by microdilution method; type: functional, organism-based
MCF7 [1] = assay: Cytotoxicity against human MCF7 cells after 48 hrs by MTT assay; type: cell-based; settings: MCF7, 48 h
[2] = Cytotoxicity against human MCF7 cells assessed as cell viability at 2.5 to 100 uM after 48 hrs by MTT assay; type: cell-based; settings: read-out: Activity
MCF7 [3] = assay: Cytotoxicity against human MCF7 cells assessed as cell viability at 250 uM after 48 hrs by MTT assay; type: cell-based; settings: mcf7, 48 h

IC50 (Entamoeba histolytica) [nM]	SMILES	IC50 (MCF7 [1]) [nM]	viability at 48 h, up to 100 µM [2] [%]	Activity (MCF7 [3])
322	COc1ccc(/C=N/n2c(S)nnc2-c2ccccc2)cc1	> 250000	60	Non-toxic
4680	FC(F)(F)c1ccccc1/C=N/n1c(S)nnc1-c1ccccc1			
1380	Cc1ccc(/C=N/n2c(S)nnc2-c2ccccc2)cc1	> 250000	65	Non-toxic
10800	Nn1c(S)nnc1-c1ccccc1			
3050	COc1cc(/C=N/n2c(-c3ccccc3)n[nH]c2=S)ccc1O			
1710	O=[N+]([O-])c1ccc(/C=N/NC(=S)N2CCCCCCC2)s1			
840	Cc1nnc2n(NC(=S)NC34CC5CC(CC(C5)C3)C4)c(C)nnc1-2			
8790	COc1ccc(OC)c(/C=N/n2c(S)nnc2-c2ccccc2)c1			
280	O=[N+]([O-])c1ccc(/C=N/n2c(S)nnc2-c2ccccc2)cc1	> 250000	60	Non-toxic
	Cc1ncc([N+](=O)[O-])n1CCO [METRONIDAZOLE]	> 250000	> 70	Non-toxic
309	CN(C)c1ccc(/C=N/n2c(S)nnc2-c2ccccc2)cc1	> 250000	65	Non-toxic
10200	Oc1ccc(/C=N/n2c(-c3ccccc3)n[nH]c2=S)cc1			
9550	S=c1[nH]nc(-c2ccccc2)n1/N=C/c1ccc(Cl)cc1			
1000	S=C(N1CCC(Cc2ccccc2)CC1)N1CCC(c2cccc(Cl)c2)=N1			
2700	COc1cc(/C=N/n2c(S)nnc2-c2ccccc2)cc(OC)c1OC			

SMILES	IC50 (Entamoeba histolytica) [nM]	IC50 (MCF7 [1]) [nM]	viability at 48 h, up to 100 µM [2] [%]	Activity (MCF7 [3])
NNC(N)=S [THIOSEMICARBAZIDE]	2290			
